Data on 7 molecules can be found in patent publication US20240317731A1, “AMINOTHIAZOLE COMPOUNDS AS C-KIT INHIBITORS” (Theseus Pharmaceuticals, Inc., priority 2021, published 2024).

Bounds are passed on as bounds.

Broadly, the GI50 is the concentration giving 50% growth inhibition.

The target of one data set is BAF3 KIT EX11 DEL/D816H (Homo sapiens, UniProt P10721, D816H, cells depend on it, form not given). Put plainly: Ba/F3 KIT mutant viability assay (Cell Titer-Glo), EX11 DEL/D816H. Type of data set: cell-based. The conditions noted are these: 72 hours. The procedure:
(§1) KIT cDNAs were synthesized by GenScript and cloned into the pLVX-IRES-Puro vector (Clontech). Viral particles were produced by transfecting pLVX-IRES-puro vectors containing KIT mutant genes into HEK293 cells (Invitrogen) using the Trans-Lentiviral ORF Packaging Kit (Thermo Scientific). 48 hours post-transfection, virus-containing supernatants were harvested and incubated for another 48-72 hours with parental Ba/F3 cells (DSMZ) in the presence of 10 ng/ml IL-3 (R&D Systems). Transduced Ba/F3 cells were then selected by IL-3 withdrawal and puromycin (0.5-1 μg/mL, Invitrogen).
(§2) Cell lines (e.g., EX11DEL, EX11KEL/D816H, EX11DEL/T670I, and EX11DEL/V654A) were plated into 384 well plates using RPMI 1640 supplemented with 10% FBS at densities that produced linear growth and incubated at 37° C. in 5%(v/v) CO2. Cells were treated with eight concentrations of compound over a 4-fold dilution (10 uM to 0.61 nM) and viability was assessed using Cell Titer-Glo assay (Promega) after 72 hours. Data were plotted as percent viability relative to vehicle-treated cells. Dose-responses curves were generated and used to calculate IC50 values.
A general note: Cellular ATP, detected with luciferase, serves as a proxy for viable cell number.

The target of another data set is BAF3 KIT EX11 DEL/T670I (Homo sapiens, UniProt P10721, T670I, cells depend on it, form not given). The data set can be described thus: Ba/F3 KIT mutant viability assay (Cell Titer-Glo), EX11 DEL/T670I. Type of data set: cell-based. The settings on record: 72 hours. The procedure: as §1, §2
In a further data set the target is BAF3 KIT EX11 DEL/V654A (Homo sapiens, UniProt P10721, V654A, cells depend on it, form not given). Put plainly: Ba/F3 KIT mutant viability assay (Cell Titer-Glo), EX11 DEL/V654A. Type of data set: cell-based. The conditions noted are these: 72 hours. The procedure:
as §1, §2

Another data set deals with BAF3 KIT EX11 DEL (Homo sapiens, UniProt P10721, cells depend on it, form not given). The data set can be described thus: Ba/F3 KIT mutant viability assay (Cell Titer-Glo), EX11 DEL. Type of data set: cell-based. The settings on record: 72 hours. The procedure:
as §1, §2

Data set [1] is described as follows: In vivo pharmacokinetic studies in non-human primates (monkeys). Also on record: species or system monkey. The settings on record: male and female monkeys, oral. The procedure:
Pharmacokinetic studies of Compound (1a) in non-human primates were also undertaken in male (FIG. 2A) and female (FIG. 2B) monkeys at two different doses (2 mg/kg and 4 mg/kg) via oral administration.

Data set [2] is described as follows: In vivo pharmacokinetic studies in rats. The conditions noted are these: rat. The text has this:
For example, the pharmacokinetics of Compound (1a) has been studied. […] After repeat dosing for 10 days, increased AUC (area under the curve) were obtained with Compound (1a) at either dose (see FIG. 1).

Chain of BAF3 KIT EX11 DEL/V654A (P10721 with tags, fused parts or gaps DEL557-558/V654A, form open): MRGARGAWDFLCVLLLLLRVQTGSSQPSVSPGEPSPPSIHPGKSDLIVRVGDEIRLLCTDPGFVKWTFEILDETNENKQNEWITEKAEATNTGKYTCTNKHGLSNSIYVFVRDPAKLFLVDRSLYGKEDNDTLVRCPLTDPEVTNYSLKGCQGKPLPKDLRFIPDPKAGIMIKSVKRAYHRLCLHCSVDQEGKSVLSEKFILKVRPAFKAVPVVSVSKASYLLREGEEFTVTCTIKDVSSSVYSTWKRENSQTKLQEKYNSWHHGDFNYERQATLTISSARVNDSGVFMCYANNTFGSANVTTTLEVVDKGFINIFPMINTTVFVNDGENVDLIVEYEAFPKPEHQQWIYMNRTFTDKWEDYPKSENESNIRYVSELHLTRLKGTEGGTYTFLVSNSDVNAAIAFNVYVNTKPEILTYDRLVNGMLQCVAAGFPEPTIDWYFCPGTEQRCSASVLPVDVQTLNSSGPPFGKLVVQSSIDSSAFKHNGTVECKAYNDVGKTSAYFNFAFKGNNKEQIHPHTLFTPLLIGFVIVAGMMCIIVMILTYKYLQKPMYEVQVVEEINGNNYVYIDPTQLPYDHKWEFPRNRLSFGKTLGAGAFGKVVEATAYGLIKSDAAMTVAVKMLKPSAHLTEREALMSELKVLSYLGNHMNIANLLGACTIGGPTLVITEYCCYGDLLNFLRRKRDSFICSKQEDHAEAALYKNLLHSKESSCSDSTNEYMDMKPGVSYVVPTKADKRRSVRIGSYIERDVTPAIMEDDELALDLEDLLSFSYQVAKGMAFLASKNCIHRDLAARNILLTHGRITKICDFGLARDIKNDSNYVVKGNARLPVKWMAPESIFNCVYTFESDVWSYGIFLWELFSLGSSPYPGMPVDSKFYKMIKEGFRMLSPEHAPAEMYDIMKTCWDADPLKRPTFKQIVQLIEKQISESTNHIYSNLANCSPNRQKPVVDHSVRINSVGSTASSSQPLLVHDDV
Chain of BAF3 KIT EX11 DEL (P10721 with tags, fused parts or gaps DEL557-558): as the sequence (P10721 with tags, fused parts or gaps DEL557-558/V654A, form open) above, with A652V counted along it
Chain of BAF3 KIT EX11 DEL/T670I (P10721 with tags, fused parts or gaps DEL557-558/T670I, form open): as the sequence (P10721 with tags, fused parts or gaps DEL557-558/V654A, form open) above, with A652V, T668I counted along it
Chain of BAF3 KIT EX11 DEL/D816H (P10721 with tags, fused parts or gaps DEL557-558/D816H, form open): as the sequence (P10721 with tags, fused parts or gaps DEL557-558/V654A, form open) above, with A652V, D814H counted along it

For the molecule `Cc1ccc(NC(=O)c2cc(C(F)(F)F)ccn2)cc1C#Cc1cnc(NC(=O)N2CC(C)(O)C2)s1` [Compound 4], the GI50 on BAF3 KIT EX11 DEL/D816H was 10 to 50 nM; on BAF3 KIT EX11 DEL/T670I, 10 to 50 nM; on BAF3 KIT EX11 DEL/V654A, 10 to 50 nM; on BAF3 KIT EX11 DEL it was under 10 nM.
`CN[C@H]1CCN(C(=O)Nc2ncc(C#Cc3cc(NC(=O)c4cc(C(F)(F)F)ccn4)ccc3C)s2)C1` [Compound 5a]: the GI50 at BAF3 KIT EX11 DEL/D816H is 10 to 50 nM; at BAF3 KIT EX11 DEL/T670I, 50 to 100 nM; on BAF3 KIT EX11 DEL/V654A, 10 to 50 nM; at BAF3 KIT EX11 DEL, under 10 nM.
Consider `Cc1ccc(NC(=O)c2cc(C(F)(F)F)ccn2)cc1C#Cc1cnc(NC(=O)N2CC(O)C2)s1` [Compound 3], for which the concentration for 50% growth inhibition (GI50) at BAF3 KIT EX11 DEL/D816H was 10 to 50 nM; on BAF3 KIT EX11 DEL/T670I, 10 to 50 nM; at BAF3 KIT EX11 DEL/V654A it was 10 to 50 nM; on BAF3 KIT EX11 DEL, under 10 nM.
For `Cc1ccc(NC(=O)c2cc(C(F)(F)F)ccn2)cc1C#Cc1cnc(NC(=O)N2CC[C@H](N(C)C)C2)s1` [Compound 1a, N-[3-[2-[2-[[(3S)-3-(dimethylamino)pyrrolidine-1-carbonyl]amino]thiazol-5-yl]ethynyl]-4-methyl-phenyl]-4-(trifluoromethyl)pyridine-2-carboxamide], the GI50 at BAF3 KIT EX11 DEL/D816H is 10 to 50 nM; on BAF3 KIT EX11 DEL/T670I, 10 to 50 nM; on BAF3 KIT EX11 DEL/V654A, 10 to 50 nM; at BAF3 KIT EX11 DEL, under 10 nM. Also, the “curve shapes and AUC, Day 1 versus Day 10” value in data set [1] (2 mg/kg and 4 mg/kg (either dose), FIG. 2A/2B) is given as “similar”. In addition, in data set [1] (2 mg/kg and 4 mg/kg, Day 10 versus Day 1), the “exposure after repeat dosing” value is “no significant loss of exposure”. For the same molecule, the “AUC (area under the curve) after repeat dosing” value in data set [2] (oral, 10 mg/kg and 30 mg/kg (either dose), repeat dosing for 10 days, FIG. 1) is given as “increased”. Besides, the “average observed plasma concentration (Cav) versus target exposure” value in data set [2] (oral, 30 mg/kg (the latter dose)) was “exceeded target exposure required for achieving desired antitumor efficacy”. The “clearance (Cl)” value in data set [2] (single dose) is listed as “high”. The “volume of distribution (Vd)” value in data set [2] (single dose) is recorded as “high”.
Take `Cc1ccc(NC(=O)c2cc(C(F)(F)F)ccn2)cc1C#Cc1cnc(NC(=O)N2CC[C@@H](N(C)C)C2)s1` [Compound 1b]: the GI50 at BAF3 KIT EX11 DEL/D816H was 10 to 50 nM; on BAF3 KIT EX11 DEL/T670I it was 10 to 50 nM; at BAF3 KIT EX11 DEL/V654A it was 10 to 50 nM; at BAF3 KIT EX11 DEL, under 10 nM.
Consider `Cc1ccc(NC(=O)c2cc(C(F)(F)F)ccn2)cc1C#Cc1cnc(NC(=O)N2CC[C@@H](O)C2)s1` [Compound 2a], for which the GI50 at BAF3 KIT EX11 DEL/D816H, at BAF3 KIT EX11 DEL/T670I, at BAF3 KIT EX11 DEL/V654A and at BAF3 KIT EX11 DEL was under 10 nM throughout.
Turning to `Cc1ccc(NC(=O)c2cc(C(F)(F)F)ccn2)cc1C#Cc1cnc(NC(=O)N2CC[C@H](O)C2)s1` [Compound 2b], the GI50 on BAF3 KIT EX11 DEL/D816H, at BAF3 KIT EX11 DEL/T670I, at BAF3 KIT EX11 DEL/V654A and at BAF3 KIT EX11 DEL was under 10 nM each time.
